Experimental data reported in patent US10696639B2, “Heterocyclic compounds as HIV protease inhibitors” (Merck Sharp & Dohme Corp., priority 2016, dated 2020).

biological target: T1, wild-type HIV-1 protease (Human immunodeficiency virus type 1 group M subtype B, UniProt P04585); assay: Assay for Inhibition of Microbial Expressed HIV Protease; assay type: biochemical; details: E. coli expressed wild-type HIV-1 protease, peptide substrate cleavage, LC-MS readout; mean of at least two independent experiments; read-out: HIV Pr Enzyme HIV1 PR IC50
T1 construct: Escherichia coli expressed wild-type HIV-1 protease protein; made in house; host or cells: Escherichia coli
Description: Assay for Inhibition of Microbial Expressed HIV Protease
Inhibition of Escherichia coli expressed wild-type HIV-1 protease protein was carried out with a peptide substrate [Val-Ser-Gln-Asn-(βnaphtyl)Ala-Pro-Ile-Val]. The inhibitor compound was preincubated with HIV-1 protease enzyme in assay buffer (50 mM sodium acetate, pH 5.5, 100 mM NaCl, and 0.1% BSA) for 30 minutes at room temperature. Peptide substrate was added to […] in a total volume of 20 μL containing 20 pM HIV-1 protease (final) after which the reaction was incubated for 1 hour at 30° C. The reaction was quenched by the addition of formic acid and HIV protease inhibitor indinavir to 0.012% and 150 nM final concentrations, respectively. Product formation was determined after separation of product and substrate on a ZORBAX Eclipse XDB-C18 column (Aligent Technologies, Santa Clara, Calif., USA) connected to an API 4000™ mass spectrometer (AB Sciex, Pte. Ltd., Concord Ontario, Canada) with multiple reaction monitoring (transitions were 644.5/428.9 and 615.4/422.2 (M1/M3) for product and indinavir respectively). The extent of inhibition of the reaction was determined from the peak area of the products. Analysis of the products, independently synthesized, provided quantitation standards and confirmation of the product composition.

SMILES | IC50
COC(=O)N[C@@H](Cc1ccc(OC)cc1)C(=O)N[C@@H](C)CCCN1C(=N)N[C@](CC(C)C)(c2ccccc2)C1=O [Example 1, N-{(1S)-4-[(4R)-2-imino-4-(2-methylpropyl)-5-oxo-4-phenylimidazolidin-1-yl]-1-methylbutyl}-N-alpha-(methoxycarbonyl)-O-methyl-L-tyrosinamide] | 18 nM
N=C1NC(c2ccccc2)(c2ccccc2)C(=O)N1CCCCNC(=O)[C@@H](N)Cc1ccccc1 [Example 2, N-[4-(2-imino-5-oxo-4,4-diphenylimidazolidin-1-yl)butyl]-L-phenylalaninamide] | 11 nM
CC(=O)N[C@@H](Cc1ccccc1)C(=O)NCCCCN1C(=N)NC(c2ccccc2)(c2ccccc2)C1=O [Example 3, N-alpha-acetyl-N-[4-(2-imino-5-oxo-4,4-diphenylimidazolidin-1-yl)butyl]-L-phenylalaninamide] | 8 nM
COC(=O)N[C@@H](Cc1ccccc1)C(=O)NCCCCN1C(=N)NC(c2ccccc2)(c2ccccc2)C1=O [Example 4, N-[4-(2-imino-5-oxo-4,4-diphenylimidazolidin-1-yl)butyl]-N-alpha-(methoxycarbonyl)-L-phenylalaninamide] | 10 nM
N=C1NC(c2ccccc2)(c2ccccc2)C(=O)N1CCCCNC(=O)[C@@H](N)CCc1ccccc1 [Example 5, (2S)-2-amino-N-[4-(2-imino-5-oxo-4,4-diphenylimidazolidin-1-yl)butyl]-4-phenylbutanamide] | 6 nM
CCOC(=O)N[C@@H](Cc1ccccc1)C(=O)NCCCCN1C(=N)NC(c2ccccc2)(c2ccccc2)C1=O [Example 6, N-alpha-(ethoxycarbonyl)-N-[4-(2-imino-5-oxo-4,4-diphenylimidazolidin-1-yl)butyl]-L-phenylalaninamide] | 4 nM
COC(=O)N[C@@H](Cc1ccccc1)C(=O)N[C@@H](C)CCCN1C(=N)NC(c2ccccc2)(c2ccccc2)C1=O [Example 7, N-[(1S)-4-(2-imino-5-oxo-4,4-diphenylimidazolidin-1-yl)-1-methylbutyl]-N-alpha-(methoxycarbonyl)-L-phenylalaninamide] | 2 nM
COC(=O)N[C@@H](Cc1cccnc1)C(=O)NCCCCN1C(=N)NC(c2ccccc2)(c2ccccc2)C1=O [Example 8, methyl [(1S)-2-{[4-(2-imino-5-oxo-4,4-diphenylimidazolidin-1-yl)butyl]amino}-2-oxo-1-(pyridin-3-ylmethyl)ethyl]carbamate] | 12 nM
N=C1NC(c2ccccc2)(c2ccccc2)C(=O)N1CCCCNC(=O)[C@@H](N)Cc1cccnc1 [Example 9, N-[4-(2-imino-5-oxo-4,4-diphenylimidazolidin-1-yl)butyl]-3-pyridin-3-yl-L-alaninamide] | 31 nM
N=C1NC(c2ccccc2)(c2ccccc2)C(=O)N1CCCCNC(=O)[C@@H](N)Cc1ccncc1 [Example 10, N-[4-(2-imino-5-oxo-4,4-diphenylimidazolidin-1-yl)butyl]-3-pyridin-4-yl-L-alaninamide] | 34 nM
COC(=O)N[C@@H](Cc1ccccc1)C(=O)N[C@@H](C)CCCN1C(=N)NC(c2ccc(F)cc2)(c2ccc(F)cc2)C1=O [Example 11, N-{(1S)-4-[4,4-bis(4-fluorophenyl)-2-imino-5-oxoimidazolidin-1-yl]-1-methylbutyl}-N-alpha-(methoxycarbonyl)-L-phenylalaninamide] | 7 nM
COC(=O)N[C@@H](Cc1ccccn1)C(=O)NCCCCN1C(=N)NC(c2ccccc2)(c2ccccc2)C1=O [Example 12, methyl [(1S)-2-{[4-(2-imino-5-oxo-4,4-diphenylimidazolidin-1-yl)butyl]amino}-2-oxo-1-(pyridin-2-ylmethyl)ethyl]carbamate] | 21 nM
COC(=O)N[C@@H](Cc1ccncc1)C(=O)NCCCCN1C(=N)NC(c2ccccc2)(c2ccccc2)C1=O [Example 13, methyl [(1S)-2-{[4-(2-imino-5-oxo-4,4-diphenylimidazolidin-1-yl)butyl]amino}-2-oxo-1-(pyridin-4-ylmethyl)ethyl]carbamate] | 7 nM
N=C1NC(c2ccccc2)(c2ccccc2)C(=O)N1CCCCCNC(=O)[C@@H](N)Cc1ccccc1 [Example 14, N-[5-(2-imino-5-oxo-4,4-diphenylimidazolidin-1-yl)pentyl]-L-phenylalaninamide] | 67 nM
COC(=O)N[C@@H](Cc1ccccc1)C(=O)NCCCCCN1C(=N)NC(c2ccccc2)(c2ccccc2)C1=O [Example 15, N-[5-(2-imino-5-oxo-4,4-diphenylimidazolidin-1-yl)pentyl]-N-alpha-(methoxycarbonyl)-L-phenylalaninamide] | 98 nM
CC(C)CC1(c2ccccc2)NC(=N)N(CCCCNC(=O)[C@@H](N)Cc2ccccc2)C1=O (stereo partly drawn) [Example 16, N-{4-[2-imino-4-(2-methylpropyl)-5-oxo-4-phenylimidazolidin-1-yl]butyl}-L-phenylalaninamide] | 19 nM
COC(=O)N[C@@H](Cc1ccccc1)C(=O)NCCCCN1C(=N)NC(CC(C)C)(c2ccccc2)C1=O (stereo partly drawn) [Example 17, N-{4-[2-imino-4-(2-methylpropyl)-5-oxo-4-phenylimidazolidin-1-yl]butyl}-N-alpha-(methoxycarbonyl)-L-phenylalaninamide] | 20 nM
CC(C)CCC1(c2ccccc2)NC(=N)N(CCCCNC(=O)[C@@H](N)Cc2ccccc2)C1=O (stereo partly drawn) [Example 18, N-{4-[2-imino-4-(3-methylbutyl)-5-oxo-4-phenylimidazolidin-1-yl]butyl}-L-phenylalaninamide] | 25 nM
COC(=O)N[C@@H](Cc1ccccc1)C(=O)NCCCCN1C(=N)NC(CCC(C)C)(c2ccccc2)C1=O (stereo partly drawn) [Example 19, N-{4-[2-imino-4-(3-methylbutyl)-5-oxo-4-phenylimidazolidin-1-yl]butyl}-N-alpha-(methoxycarbonyl)-L-phenylalaninamide] | 24 nM
COC(=O)N[C@@H](Cc1ccncc1)C(=O)NCCCCCN1C(=N)NC(c2ccccc2)(c2ccccc2)C1=O [Example 20, methyl [(1S)-2-{[5-(2-imino-5-oxo-4,4-diphenylimidazolidin-1-yl)pentyl]amino}-2-oxo-1-(pyridin-4-ylmethyl)ethyl]carbamate] | 91 nM
COC(=O)N[C@@H](Cc1ccncc1)C(=O)NCCCCN1C(=N)NC(CC(C)C)(c2ccccc2)C1=O (stereo partly drawn) [Example 21, methyl [(1S)-2-({4-[2-imino-4-(2-methylpropyl)-5-oxo-4-phenylimidazolidin-1-yl]butyl}amino)-2-oxo-1-(pyridin-4-ylmethyl)ethyl]carbamate] | 46 nM
COC(=O)N[C@@H](Cc1ccncc1)C(=O)NCCCCN1C(=N)NC(CCC(C)C)(c2ccccc2)C1=O (stereo partly drawn) [Example 22, methyl [(1S)-2-({4-[2-imino-4-(3-methylbutyl)-5-oxo-4-phenylimidazolidin-1-yl]butyl}amino)-2-oxo-1-(pyridin-4-ylmethyl)ethyl]carbamate] | 60 nM
CC1(OC(=O)N[C@@H](Cc2ccccc2)C(=O)NCCCCN2C(=N)NC(c3ccccc3)(c3ccccc3)C2=O)CC1 [Example 23, N-[4-(2-imino-5-oxo-4,4-diphenylimidazolidin-1-yl)butyl]-N-alpha-{[(1-methylcyclopropyl)oxy]carbonyl}-L-phenylalaninamide] | 16 nM
N#Cc1cccc(C[C@H](N)C(=O)NCCCCN2C(=N)NC(c3ccccc3)(c3ccccc3)C2=O)c1 [Example 24, 3-cyano-N-[4-(2-imino-5-oxo-4,4-diphenylimidazolidin-1-yl)butyl]-L-phenylalaninamide] | 22 nM
COC(=O)N[C@@H](Cc1ccc(F)cc1)C(=O)NCCCCN1C(=N)NC(c2ccccc2)(c2ccccc2)C1=O [Example 25, 4-fluoro-N-[4-(2-imino-5-oxo-4,4-diphenylimidazolidin-1-yl)butyl]-N-alpha-(methoxycarbonyl)-L-phenylalaninamide] | 17 nM
CC(C)OC(=O)N[C@@H](Cc1ccccc1)C(=O)NCCCCN1C(=N)NC(c2ccccc2)(c2ccccc2)C1=O [Example 26, N-[4-(2-imino-5-oxo-4,4-diphenylimidazolidin-1-yl)butyl]-N-alpha-[(1-methylethoxy)carbonyl]-L-phenylalaninamide] | 27 nM
COC(=O)N[C@@H](Cc1ccc(F)cc1)C(=O)N[C@@H](C)CCCN1C(=N)N[C@](CC(C)C)(c2ccccc2)C1=O [Example 27, 4-fluoro-N-{(1S)-4-[(4R)-2-imino-4-(2-methylpropyl)-5-oxo-4-phenylimidazolidin-1-yl]-1-methylbutyl}-N-alpha-(methoxycarbonyl)-L-phenylalaninamide] | 27 nM
COC(=O)N[C@@H](Cc1ccccc1)C(=O)N[C@@H](C)CCCN1C(=N)N[C@](CC(C)C)(c2ccccc2)C1=O [Example 28, N-{(1S)-4-[(4R)-2-imino-4-(2-methylpropyl)-5-oxo-4-phenylimidazolidin-1-yl]-1-methylbutyl}-N-alpha-(methoxycarbonyl)-L-phenylalaninamide] | 9 nM
COC(=O)N[C@@H](Cc1ccccc1)C(=O)NC(CCCN1C(=N)N[C@](CC(C)C)(c2ccccc2)C1=O)CC1CC1 (stereo partly drawn) [Example 29, N-{1-(cyclopropylmethyl)-4-[(4R)-2-imino-4-(2-methylpropyl)-5-oxo-4-phenylimidazolidin-1-yl]butyl}-N-alpha-(methoxycarbonyl)-L-phenylalaninamide] | 33 nM
